“And” between values parts separate entries of the source, which are not always exact repeats. Equal entries are not always repeated.
Assay: molar heat capacity at constant pressure
Conditions: 101.33 kPa, Small (less than 1 g) adiabatic calorimetry

CCCCCCCCCCCCCCn1cc[n+](C)c1.O=S(=O)([N-]S(=O)(=O)C(F)(F)F)C(F)(F)F
Conditions | molar heat capacity at constant pressure
180 K, Crystal 2 | 473.1 J/K/mol
180.86 K, Crystal 2 | 474.8 J/K/mol
181.71 K, Crystal 2 | 476.2 J/K/mol
183.59 K, Crystal 2 | 479.9 J/K/mol
184.16 K, Crystal 2 | 480.9 J/K/mol
186.32 K, Crystal 2 | 485.4 J/K/mol
186.61 K, Crystal 2 | 485.8 J/K/mol
189.04 K, Crystal 2 | 490.7 J/K/mol
189.07 K, Crystal 2 | 490.4 J/K/mol
190 K, Crystal 2 | 492.5 J/K/mol
191.51 K, Crystal 2 | 495.2 J/K/mol
191.77 K, Crystal 2 | 496.1 J/K/mol
193.95 K, Crystal 2 | 500 J/K/mol
194.49 K, Crystal 2 | 501.3 J/K/mol
196.39 K, Crystal 2 | 504.9 J/K/mol
197.2 K, Crystal 2 | 507 J/K/mol
198.82 K, Crystal 2 | 509.9 J/K/mol
199.91 K, Crystal 2 | 512.5 J/K/mol
200 K, Crystal 2 | 512.7 J/K/mol
201.26 K, Crystal 2 | 515.7 J/K/mol
202.62 K, Crystal 2 | 518.2 J/K/mol
203.7 K, Crystal 2 | 520.6 J/K/mol
205.33 K, Crystal 2 | 523.7 J/K/mol
206.13 K, Crystal 2 | 525.4 J/K/mol
208.03 K, Crystal 2 | 529.6 J/K/mol
208.56 K, Crystal 2 | 530.7 J/K/mol
210 K, Crystal 2 | 533.6 J/K/mol
210.73 K, Crystal 2 | 535.2 J/K/mol
210.99 K, Crystal 2 | 535.9 J/K/mol
213.42 K, Crystal 2 | 541.2 J/K/mol and 540.9 J/K/mol
215.85 K, Crystal 2 | 546.3 J/K/mol
216.12 K, Crystal 2 | 547 J/K/mol
218.27 K, Crystal 2 | 551.8 J/K/mol
218.8 K, Crystal 2 | 552.9 J/K/mol
220 K, Crystal 2 | 556 J/K/mol
220.69 K, Crystal 2 | 557.4 J/K/mol
221.49 K, Crystal 2 | 559.3 J/K/mol
223.1 K, Crystal 2 | 562.9 J/K/mol
224.17 K, Crystal 2 | 565.7 J/K/mol
225.52 K, Crystal 2 | 568.8 J/K/mol
226.84 K, Crystal 2 | 572.3 J/K/mol
227.93 K, Crystal 2 | 575.1 J/K/mol
229.5 K, Crystal 2 | 579.5 J/K/mol
230 K, Crystal 2 | 580.3 J/K/mol
230.33 K, Crystal 2 | 581.3 J/K/mol
232.15 K, Crystal 2 | 586.6 J/K/mol
232.74 K, Crystal 2 | 587.7 J/K/mol
234.8 K, Crystal 2 | 593.8 J/K/mol
235.14 K, Crystal 2 | 593.7 J/K/mol
237.44 K, Crystal 2 | 600.9 J/K/mol
237.53 K, Crystal 2 | 600.1 J/K/mol
239.92 K, Crystal 2 | 607.2 J/K/mol
240 K, Crystal 2 | 607.6 J/K/mol
240.07 K, Crystal 2 | 608 J/K/mol
242.33 K, Crystal 2 | 613.8 J/K/mol
242.71 K, Crystal 2 | 616.1 J/K/mol
244.72 K, Crystal 2 | 621.4 J/K/mol
245.33 K, Crystal 2 | 624.4 J/K/mol
247.1 K, Crystal 2 | 629.1 J/K/mol
247.95 K, Crystal 2 | 632.9 J/K/mol
249.48 K, Crystal 2 | 637 J/K/mol
250 K, Crystal 2 | 639.3 J/K/mol
250.55 K, Crystal 2 | 642.1 J/K/mol
251.33 K, Crystal 2 | 642.4 J/K/mol
252.65 K, Crystal 2 | 648 J/K/mol
253.15 K, Crystal 2 | 651.7 J/K/mol
253.97 K, Crystal 2 | 653.1 J/K/mol
255.29 K, Crystal 2 | 657.1 J/K/mol
255.74 K, Crystal 2 | 660.9 J/K/mol
256.6 K, Crystal 2 | 662.4 J/K/mol
257.91 K, Crystal 2 | 667.6 J/K/mol
258.31 K, Crystal 2 | 671.7 J/K/mol
259.22 K, Crystal 2 | 673.8 J/K/mol
260 K, Crystal 2 | 677.5 J/K/mol
260.52 K, Crystal 2 | 679.4 J/K/mol
260.86 K, Crystal 2 | 683.4 J/K/mol
261.81 K, Crystal 2 | 685.8 J/K/mol
263.1 K, Crystal 2 | 692.1 J/K/mol
263.41 K, Crystal 2 | 696 J/K/mol
264.39 K, Crystal 2 | 699.3 J/K/mol
265.67 K, Crystal 2 | 706.4 J/K/mol
265.94 K, Crystal 2 | 709.4 J/K/mol
266.97 K, Crystal 2 | 713.8 J/K/mol
268.24 K, Crystal 2 | 721.6 J/K/mol
268.46 K, Crystal 2 | 725 J/K/mol
269.5 K, Crystal 2 | 730 J/K/mol
270 K, Crystal 2 | 734.5 J/K/mol
270.76 K, Crystal 2 | 739.3 J/K/mol
270.95 K, Crystal 2 | 741.9 J/K/mol
272.01 K, Crystal 2 | 748.9 J/K/mol
273.25 K, Crystal 2 | 759 J/K/mol
273.42 K, Crystal 2 | 761.2 J/K/mol
274.48 K, Crystal 2 | 769.6 J/K/mol
275.71 K, Crystal 2 | 781.6 J/K/mol
275.87 K, Crystal 2 | 783.5 J/K/mol
276.93 K, Crystal 2 | 793.6 J/K/mol
278.14 K, Crystal 2 | 807.6 J/K/mol
278.29 K, Crystal 2 | 809.7 J/K/mol
279.35 K, Crystal 2 | 822 J/K/mol
280 K, Crystal 2 | 830.5 J/K/mol
280.54 K, Crystal 2 | 837.6 J/K/mol
280.67 K, Crystal 2 | 840.7 J/K/mol
281.72 K, Crystal 2 | 855 J/K/mol
282.9 K, Crystal 2 | 874.3 J/K/mol
283.02 K, Crystal 2 | 878.3 J/K/mol
284.05 K, Crystal 2 | 895.5 J/K/mol
285.2 K, Crystal 2 | 918.1 J/K/mol
285.31 K, Crystal 2 | 923.3 J/K/mol
286.34 K, Crystal 2 | 943.8 J/K/mol
287.46 K, Crystal 2 | 972.2 J/K/mol
287.56 K, Crystal 2 | 977.1 J/K/mol
288.56 K, Crystal 2 | 1003 J/K/mol
289.65 K, Crystal 2 | 1034 J/K/mol
289.75 K, Crystal 2 | 1039 J/K/mol
290 K, Crystal 2 | 1046 J/K/mol
290.72 K, Crystal 2 | 1067 J/K/mol
291.76 K, Crystal 2 | 1097 J/K/mol
291.87 K, Crystal 2 | 1102 J/K/mol
292.8 K, Crystal 2 | 1118 J/K/mol
293.83 K, Crystal 2 | 1139 J/K/mol
293.96 K, Crystal 2 | 1145 J/K/mol
294.85 K, Crystal 2 | 1153 J/K/mol
295.5 K, Crystal 1 | 1155 J/K/mol
295.5 K, Crystal 2 | 1155 J/K/mol
295.86 K, Crystal 1 | 1154 J/K/mol
296 K, Crystal 1 | 1156 J/K/mol
296.87 K, Crystal 1 | 1144 J/K/mol
297.93 K, Crystal 1 | 998.8 J/K/mol
298.13 K, Crystal 1 | 971.7 J/K/mol
298.15 K, Crystal 1 | 971.6 J/K/mol
299.06 K, Crystal 1 | 853.3 J/K/mol
300 K, Crystal 1 | 851.8 J/K/mol
300.22 K, Crystal 1 | 854.4 J/K/mol
300.42 K, Crystal 1 | 852.5 J/K/mol
301.39 K, Crystal 1 | 866.6 J/K/mol
302.54 K, Crystal 1 | 889.6 J/K/mol
302.77 K, Crystal 1 | 884.7 J/K/mol
303.68 K, Crystal 1 | 937.6 J/K/mol
304.77 K, Crystal 1 | 1081 J/K/mol
304.97 K, Crystal 1 | 1130 J/K/mol
305.73 K, Crystal 1 | 1438 J/K/mol
308.77 K, Crystal 1 | 898.6 J/K/mol
308.77 K, Liquid | 896.2 J/K/mol
310 K, Liquid | 897.4 J/K/mol
320 K, Liquid | 907.2 J/K/mol
330 K, Liquid | 917 J/K/mol
340 K, Liquid | 926.7 J/K/mol
350 K, Liquid | 936.5 J/K/mol
360 K, Liquid | 946.2 J/K/mol
370 K, Liquid | 956 J/K/mol
